The record followed here is publication PMC7076013 (Scientific Reports, 2020).

The subject of data set [1] is A375, human melanoma. In words: CV (crystal violet) cell viability, A375. The data set is classed as cell-based. The settings on record: for IC50: 48 h; for Selectivity index A375: IC50 macrophages / IC50 cancer. Here is the method: (§1) Both melanoma and colon cancer are tumor types tightly connected with inflammation, while the expression of COX-2 in the selected cell lines was highly variable. Since a lot of discrepancies were found in the literature concerning the expression of this enzyme[5],[48]–[53], both COX-1 and COX-2 expression was analyzed by Western blot. […] The cells were treated with a wide range of doses of 4a–c, 5, and 6 for 48 h and cell viability was determined by MTT (3-(4,5-dimethylthiazol-2-yl)-2,5-diphenyltetrazolium bromide) and CV (crystal violet) assays. The obtained IC50 values were similar for both assays (Table 1).
(§2) Reagents were obtained from Sigma (St. Louis, MO) unless indicated otherwise. Annexin V - FITC (AnnV) was acquired from Biotium (Hayward, CA) and Apostat from R&D (R&D S ystems, Minneapolis, MN USA). […] After being detached b y tr ypsinization, cells were seeded in defined number as follows: 2.5 × 10^3 cells/well in 96-well plates for viability assessment and 2 × 10^4 cells/well in 24-well plates for flow cytometry. Peritoneal resident […]
(§3) for Biolo gical Research “Siniša Stanković” b y peritoneal lav age with an ice- cold phosphate buffer solution (PBS). The handling of animals and protocol for obtaining cells is in agreement with the rules of the European Union and approved by the Institutional Animal Care and Use Committee at IBISS (02- 09/1 6). Cells were counted and seeded in 96-well plates and incubat ed overnight. Before treatment, non- adherent cells were removed. Compounds 4a- c, 5 and 6 were dissolved in DMSO and stored at −20 °C for a m onth. Working solutions were freshl y prepared in 10% FCS-RPMI-1640. Controls were treated with culture medium containing the equivalent […]
(§4) 3.2. Cell viability tests.
(§5) The number of viable cel ls in culture was estimated by the MTT (3-(4,5- dimethylthiazol- 2-yl ) - 2,5- diphenyltetrazolium bromide) and CV (crystal violet) tests. Cells were incubated in the presence of compounds 4a- c, 5 and 6 for 48 h, then the viability was measured as described.4 […]
(§6) The results were ex pressed as a p er centage of a v alue obtained for the untr eated control cells that was arbitrarily set to be 100%. A non- linear regression analysis of obtained results was done b y using Gr aphPad Prism software to calculat e IC50 values. […]

Data set [2] relates to peritoneal resident macrophages. The data set is described as follows: CV cytotoxicity for isolated macrophages. The data set is classed as cell-based, C57BL/6 mice. The following applies: crystal violet (CV) test. Here is the method:
as §2, §3, §4, §5, §6
14 Ligand molecules and one […]
protocol published earlier.16
Cell line Selectivity index

Data set [3] relates to A375, human melanoma. The data set is described as follows: MTT cell viability, A375. The following applies: 48 h. It counts as cell-based. Here is the method:
as §1
(§7) Reagents were obtained from Sigma (St. Louis, MO) unless indicated otherwise. Annexin V - FITC (AnnV) was acquired from Biotium (Hayward, CA) and Apostat from R&D (R&D S ystems, Minneapolis, MN USA). […] After being detached b y tr ypsinization, cells were seeded in defined number as follows: 2.5 × 10^3 cells/well in 96-well plates for viability assessment and 2 × 10^4 cells/well in 24-well plates for flow cytometry. […]
(§8) Committee at IBISS (02- 09/1 6). Cells were counted and seeded in 96-well plates and incubat ed overnight. Before treatment, non- adherent cells were removed. Compounds 4a- c, 5 and 6 were dissolved in DMSO and stored at −20 °C for a m onth. Working solutions were freshl y prepared in 10% FCS-RPMI-1640. Controls were treated with culture medium containing the equivalent […]
as §4, §5, §6

For data set [4], the system named is CT26CL25, mouse colon carcinoma. In words: CV (crystal violet) cell viability, CT26CL25. The settings on record: for IC50: 48 h; for Selectivity index CT26CL25: IC50 macrophages / IC50 cancer. The data set is classed as cell-based. On the procedure:
as §1, §2, §3, §4, §5, §6

Data set [5] relates to HCT116, human colon carcinoma. The data set is described as follows: MTT cell viability, HCT116. The data set is classed as cell-based. The settings on record: 48 h. On the procedure:
as §1, §7, §8, §4, §5, §6

The test system of data set [6] is HCT116, human colon carcinoma. The data set is described as follows: CV (crystal violet) cell viability, HCT116. It counts as cell-based. The settings on record: for IC50: 48 h; for Selectivity index HCT116: IC50 macrophages / IC50 cancer. Here is the method:
as §1, §2, §3, §4, §5, §6

The target in the next data set is T1, ovine COX-1 (Ovis aries, UniProt P05979).
T1 construct: purchased Cayman Chemical Item No. 700100 (assay kit)
T1 sequence (P05979 25-600): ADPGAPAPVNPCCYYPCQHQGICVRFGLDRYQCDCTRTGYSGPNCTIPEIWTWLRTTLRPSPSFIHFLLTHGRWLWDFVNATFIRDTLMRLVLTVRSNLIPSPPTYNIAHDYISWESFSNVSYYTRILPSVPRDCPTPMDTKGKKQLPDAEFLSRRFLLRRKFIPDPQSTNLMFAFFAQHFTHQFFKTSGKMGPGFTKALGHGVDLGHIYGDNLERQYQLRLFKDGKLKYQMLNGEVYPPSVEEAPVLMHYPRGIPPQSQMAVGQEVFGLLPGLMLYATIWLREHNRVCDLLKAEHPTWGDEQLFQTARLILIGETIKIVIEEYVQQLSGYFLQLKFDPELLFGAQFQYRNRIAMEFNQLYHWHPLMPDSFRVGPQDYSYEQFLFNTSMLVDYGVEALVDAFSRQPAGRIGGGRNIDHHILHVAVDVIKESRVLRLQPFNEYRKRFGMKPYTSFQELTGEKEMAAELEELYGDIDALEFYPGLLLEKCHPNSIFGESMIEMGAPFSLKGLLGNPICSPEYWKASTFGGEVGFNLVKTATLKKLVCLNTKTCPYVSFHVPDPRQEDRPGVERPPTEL
The data set is described as follows: COX Fluorescent Inhibitor Screening Assay, COX-1. The data set is classed as biochemical. The following applies: ovine COX-1, Cayman kit 700100. Here is the method: The synthesized compounds were tested in vitro for their potential to inhibit ovine COX-1 and human recombinant COX-2.
*All compounds were measured with the Cytation 5 plate reader and the "COX Fluorescent Inhibitor […]
chemi cals, USA) " according to the manufacturer's
Error bars indicate standard error mean (SEM) obtained from two measurements at each concentration.
(1 picture or pasted object on this page, not shown here)

Another data set deals with 518A2, human melanoma. The data set is described as follows: CV (crystal violet) cell viability, 518A2. The data set is classed as cell-based. The following applies: for IC50: 48 h; for Selectivity index 518A2: IC50 macrophages / IC50 cancer. On the procedure:
as §1, §2, §3, §4, §5, §6

Data set [7] deals with SW620, human colon carcinoma. The data set is described as follows: CV (crystal violet) cell viability, SW620. The data set is classed as cell-based. The following applies: for IC50: 48 h; for Selectivity index SW620: IC50 macrophages / IC50 cancer. Here is the method: as §1
(§9) Reagents were obtained from Sigma (St. Louis, MO) unless indicated otherwise. […]
S ystems, Minneapolis, MN USA). […] After being detached b y tr ypsinization, cells were seeded in defined number as follows: 2.5 × 10^3 cells/well in 96-well plates for viability assessment and 2 × 10^4 cells/well in 24-well plates for flow cytometry. Peritoneal resident […]
as §3, §4, §5, §6

For data set [8], the system named is B16, mouse solid melanoma. The data set is described as follows: CV (crystal violet) cell viability, B16. It counts as cell-based. The settings on record: for IC50: 48 h; for Selectivity index B16: IC50 macrophages / IC50 cancer. On the procedure:
as §1, §2, §3, §4, §5, §6

Data set [9] concerns SW480, human colon carcinoma. In words: MTT cell viability, SW480. The settings on record: 48 h. It counts as cell-based. Here is the method: as §1, §9
S ystems, Minneapolis, MN USA). […] After being detached b y tr ypsinization, cells were seeded in defined number as follows: 2.5 × 10^3 cells/well in 96-well plates for viability assessment and 2 × 10^4 cells/well in 24-well plates for flow cytometry. […]
Before treatment, non- adherent cells were removed. Compounds 4a- c, 5 and 6 were dissolved in DMSO and stored at −20 °C for a m onth. Working solutions were freshl y prepared in 10% FCS-RPMI-1640. Controls were treated with culture medium containing the equivalent […]
as §4, §5, §6

Broadly, the IC50 is the midpoint of a concentration-inhibition curve. Read a high IC50 as a need for much substance. In the case of “4-[4-(hydroxymethyl)phenyl]-3-(1,2-dicarba-closo-dodecaboranyl)furan-2(5H)-one [Compound 4c]”, the IC50 in the data set on A375, human melanoma [1] stood at 10.5 ± 0.75 µM; in data set [2], 66.2 ± 1.91 µM; with A375, human melanoma [3], 17.9 ± 1.26 µM; in data set [4] it was 29.2 ± 2.86 µM; in [5], 22.2 ± 0.95 µM; in data set [6], 19.2 ± 1.46 µM. The IC50 was over 100 µM on ovine COX-1; 41.2 ± 2.12 µM in the data set with 518A2, human melanoma; 44.4 ± 1.77 µM in [7]; 30.8 ± 3.22 µM in [8]; 24.2 ± 1.05 µM in data set [9]. Further, the “Selectivity index A375” value in the data set with A375, human melanoma [1] worked out at 6.3. For the same substance, the “Selectivity index CT26CL25” value in data set [4] worked out at 2.3. For the same substance, in data set [6], the “Selectivity index HCT116” value is given as 3.4. In the data set with 518A2, human melanoma, the “Selectivity index 518A2” value was 1.6. In addition, in data set [7], the “Selectivity index SW620” value was 1.5. Further, in [8], the “Selectivity index B16” value was 2.1.
For “4-[4-(methylnitrooxy)phenyl]-3-(1,2-dicarba-closo-dodecaboranyl)furan-2(5 H)-one [Compound 5]”, the IC50 in the data set with A375, human melanoma [1] worked out at 4.7 ± 0.3 µM; in data set [2] it was 37.1 ± 1.73 µM; with A375, human melanoma [3], 4.25 ± 1.65 µM; in [4], 29.4 ± 2.12 µM; in data set [5], 8.9 µM; in data set [6], 9.95 ± 0.95 µM. For the same substance, the IC50 on ovine COX-1 is over 100 µM; with 518A2, human melanoma, 5.5 ± 0.57 µM; in data set [7] it was 10.8 ± 0.21 µM; in [8], 11.5 ± 1.05 µM; in data set [9], 16.6 ± 1.01 µM. The “Selectivity index A375” value in the data set on A375, human melanoma [1] was found to be 7.9. Further, in data set [4], the “Selectivity index CT26CL25” value amounted to 1.3. Further, the “Selectivity index HCT116” value in data set [6] was 3.7. In addition, in the data set on 518A2, human melanoma, the “Selectivity index 518A2” value amounted to 6.7. The “Selectivity index SW620” value in [7] turned out to be 3.5. In addition, the “Selectivity index B16” value in data set [8] is given as 3.2.
As to “4-[4-(methylsulfonyl)phenyl]-3-(1,2-dicarba-closo-dodecaboranyl)furan-2(5H)-one [Compound 4b]”, the IC50 in the data set with A375, human melanoma [1] turned out to be 14.1 ± 0.75 µM; in data set [2], 65.7 ± 5.75 µM; in the data set with A375, human melanoma [3], 16.9 ± 1.35 µM; in data set [4], 36.1 ± 1.25 µM; in data set [5] it was 42.5 ± 1.42 µM; in data set [6], 35.9 µM. The IC50 was over 100 µM at ovine COX-1; 14.8 ± 0.92 µM in the data set with 518A2, human melanoma; 21.8 ± 0.64 µM in data set [7]; 22.2 ± 0.65 µM in data set [8]; 42.5 µM in data set [9]. The “Selectivity index A375” value with A375, human melanoma [1] is 4.7. Also, the “Selectivity index CT26CL25” value in data set [4] is given as 1.8. Also, the “Selectivity index HCT116” value in data set [6] is on record as 1.8. In the data set with 518A2, human melanoma, the “Selectivity index 518A2” value was found to be 4.5. Besides, the “Selectivity index SW620” value in [7] was 3.0. In addition, in data set [8], the “Selectivity index B16” value is listed as 3.0.
As to “4-phenyl-3-(1,2-dicarba-closo-dodecaboranyl)furan-2(5 H)-one [Compound 4a]”, the 50% inhibitory concentration (IC50) in the data set on A375, human melanoma [1] is 16 ± 1.65 µM; in [2] it was 48.8 ± 1.2 µM; with A375, human melanoma [3], 20.2 ± 1.26 µM; in [4] it was 37.2 ± 2.21 µM; in data set [5], 13.5 µM; in [6], 12.8 ± 0.5 µM. Also, the half-inhibitory concentration (IC50) against ovine COX-1 was over 100 µM; in the data set with 518A2, human melanoma, 21.4 ± 0.42 µM; in data set [7] it was 24.8 ± 0.35 µM; in data set [8], 30.6 ± 3.86 µM; in [9] it was 22.8 ± 0.7 µM. In the data set with A375, human melanoma [1], the “Selectivity index A375” value worked out at 3.1. Also, the “Selectivity index CT26CL25” value in data set [4] came to 1.3. Further, the “Selectivity index HCT116” value in data set [6] is listed as 3.8. Moreover, the “Selectivity index 518A2” value in the data set with 518A2, human melanoma came out at 2.3. Besides, in data set [7], the “Selectivity index SW620” value amounted to 2.0. For the same substance, in data set [8], the “Selectivity index B16” value is reported as 1.6.
For “R,S-7-(2-oxo-4-(4-sulfamoylphenyl)-2,5-dihydrofuran-3-yl)-7,8-dicarba-nido-dodeca-hydroundecaborate(–1) sodium [Compound 6]”, the IC50 with A375, human melanoma [1] was over 50 µM; with A375, human melanoma [3] it was over 50 µM; in [4], over 50 µM; in data set [5], over 50 µM; in data set [6] it was over 50 µM; against ovine COX-1, over 100 µM. The concentration for half-maximal inhibition (IC50) with 518A2, human melanoma was 49.7 ± 0.42 µM; in data set [7], over 50 µM; in [8], over 50 µM; in data set [9], over 50 µM.
